Where no end group is shown, it is not given here.
What was measured:
Assay type in all cases: cell-based, human
NHEKs [1] = experiment: Cytokine mRNA expression in NHEKs stimulated with cathelicidin peptide and dsRNA (quantitative real-time PCR); settings: for capacity to enable U1 RNA to amplify IFN-β1 or IL-6 expression: NHEKs, peptide 2.5 μM 10 minutes, then U1 RNA 2.5 μg/mL 6 hours, n = 3
Experimental: Figure 1 Inflammatory activity of cathelicidin can be dissociated from antimicrobial function (a) Transcriptomic analysis by RNASeq of primary cultures of normal human epidermal keratinocytes (NHEKs) treated with LL37 (2.5 μM) with or without U1 RNA (2.5 μg/mL) for 24 hours. Shown are gene sets induced > 2 fold over vehicle, and after treatment with LL37, U1 RNA, or the combination of LL37 + U1 RNA. (b) Gene Ontology analysis of gene sets from (a). The number of genes related to each biological process is indicated in parentheses. (c) Amino acid sequence of synthetic cathelicidin peptides used in this study. (d) Antimicrobial assay of cathelicidin peptides against group A streptococcus (GAS). GAS were incubated with various concentrations of each peptide (0–25 μM) for 6 hours, then surviving colonies counted after plating on Todd Hewitt Broth gel. (e) IFN-β1 mRNA abundance and (f) IL-6 mRNA abundance in NHEKs after treatment with cathelicidin peptides (2.5 μM) for 10 minutes, then stimulated with U1 RNA (2.5 μg/mL) for a further 6 hours. (n = 3). (g) IFN-β1 mRNA abundance and (h) IL-6 mRNA abundance in […] (PMA)-treated THP1 cells after treatment with cathelicidin peptides (3 μM) for 10 minutes, then stimulated with U1 RNA (12.5 μg/mL) overnight. (n = 3). Data presented are from one representative experiment of at least two independent experiments. Error bars are SEM of three biological replicates. *P < 0.05, **P < 0.01, ***P < 0.001 by two-way ANOVA with Bonferroni’s post-hoc test. See also Fig. S1. […]
RNA was isolated from NHEKs using Purelink RNA isolation columns (ThermoFisher Scientific) according to the manufacturer’s instructions. RNA was quantified using a Nanodrop spectrophotometer (ThermoFisher Scientific), and up to 500 ng of RNA was reverse-transcribed using the iScript cDNA synthesis kit (Bio-Rad, Irvine, CA). Quantitative real-time PCR reactions were run on a CFX96 real-time detection system (Bio-Rad) using gene-specific primers and TaqMan probes (ThermoFisher Scientific). […]

THP1 cells = experiment: Cytokine expression in PMA-treated THP1 cells stimulated with cathelicidin peptide and U1 RNA; settings: PMA-treated THP1, peptide 3 μM 10 minutes, then U1 RNA 12.5 μg/mL overnight; n = 3
Experimental: Figure 1 Inflammatory activity of cathelicidin can be dissociated from antimicrobial function (a) Transcriptomic analysis by RNASeq of primary cultures of normal human epidermal keratinocytes (NHEKs) treated with LL37 (2.5 μM) with or without U1 RNA (2.5 μg/mL) for 24 hours. Shown are gene sets induced > 2 fold over vehicle, and after treatment with LL37, U1 RNA, or the combination of LL37 + U1 RNA. (b) Gene Ontology analysis of gene sets from (a). The number of genes related to each biological process is indicated in parentheses. (c) Amino acid sequence of synthetic cathelicidin peptides used in this study. (d) Antimicrobial assay of cathelicidin peptides against group A streptococcus (GAS). GAS were incubated with various concentrations of each peptide (0–25 μM) for 6 hours, then surviving colonies counted after plating on Todd Hewitt Broth gel. (e) IFN-β1 mRNA abundance and (f) IL-6 mRNA abundance in NHEKs after treatment with cathelicidin peptides (2.5 μM) for 10 minutes, then stimulated with U1 RNA (2.5 μg/mL) for a further 6 hours. (n = 3). (g) IFN-β1 mRNA abundance and (h) IL-6 mRNA abundance in […] (PMA)-treated THP1 cells after treatment with cathelicidin peptides (3 μM) for 10 minutes, then stimulated with U1 RNA (12.5 μg/mL) overnight. (n = 3). Data presented are from one representative experiment of at least two independent experiments. Error bars are SEM of three biological replicates. *P < 0.05, **P < 0.01, ***P < 0.001 by two-way ANOVA with Bonferroni’s post-hoc test. See also Fig. S1.
Primary neonatal human epidermal keratinocytes (NHEKs) was purchased from ThermoFisher Scientific. NHEKs were grown in serum free EpiLife medium supplemented with 0.06 mM CaCl2, EpiLife Defined growth supplements (EDGS) (ThermoFisher Scientific) and antibiotics, and passage 3–5 cells were used for experiment. Cells at 60–80% confluence were starved overnight without EDGS prior to treatment. THP1 was purchased from American Type Culture Collection (ATCC) (Manassas, VA). THP1 was cultured in RPMI-1640 (Sigma) supplemented with 10% Hyclone fetal calf serum (Thermofisher Scientific), and antibiotics, and passage 3–5 cells were used for experiment. Cells at 60–80% confluence were differentiated by Phorbol 12-myristate 13-acetate (PMA, Sigma) for 24 hours and then starved overnight without Hyclone fetal calf serum prior to treatment.
RNA was isolated from NHEKs using Purelink RNA isolation columns (ThermoFisher Scientific) according to the manufacturer’s instructions. RNA was quantified using a Nanodrop spectrophotometer (ThermoFisher Scientific), and up to 500 ng of RNA was reverse-transcribed using the iScript cDNA synthesis kit (Bio-Rad, Irvine, CA). Quantitative real-time PCR reactions were run on a CFX96 real-time detection system (Bio-Rad) using gene-specific primers and TaqMan probes (ThermoFisher Scientific). PCR primers and probes are shown on Table S2.

NHEKs [2] = experiment: U1 RNA co-association with early endosome (EEA1) in NHEKs; settings: 37 °C, 4 hours
Description: Figure 2 Structure and cell binding of cathelicidin and dsRNA. (a) Structures of LL37, LL34, and LL34(I20P) bound to dsRNA were solved using SAXS. SAXS data is plotted as the scattering intensity I(q) vs. the momentum transfer vector q. LL34 (blue) and LL34(I20P) (green) condense dsRNA into square lattices with first peak positions of q10 = 0.167 Å^−1 and 0.170 Å^−1, respectively. Higher order Bragg reflections due to scattering of the square lattice of LL34 and LL34(I20P) are labeled for both complexes. In comparison, LL37 (magenta) condenses dsRNA into a columnar lattice with short-ranged order, with a first peak position of q1 = 0.172 Å^−1. (b) Linear fits of Bragg peak positions indicate that LL34-dsRNA (blue) and LL34(I20P)-dsRNA (green) complexes have inter-dsRNA spacings of 3.76 nm and 3.70 nm, respectively. Each reflection corresponding to the peaks in a for LL34 and LL34(I20P) are labeled. Close overlap of the two linear fits indicate that LL34-dsRNA and LL34(I20P)-dsRNA complexes have similar unit cell structures and inter-dsRNA spacings. End-on views along the dsRNA long-axis of the columnar (c) LL37-dsRNA and (d) LL34-dsRNA or LL34(I20P)-dsRNA complexes are shown. In (d), LL34-dsRNA and LL34(I20P)-dsRNA both form square columnar structures with similar unit cell architectures. […]

Substance	capacity to enable U1 RNA to amplify IFN-β1 or IL-6 expression (NHEKs [1])	capacity to induce IL-6 and IFN-β mRNA (NHEKs [1]; peptide with U1 RNA, keratinocytes)	capacity to enable U1 RNA to amplify IFN-β1 or IL-6 expression (THP1 cells)	co-association of U1 RNA with the early endosome (NHEKs [2])
LLGDFFRKSKEKIGKEFKRIVQRIKDFLRNLVPR [LL34]	large responses	ca. 3000 fold	large responses	induced partial co-association with the early endosome
LL37	large responses	–	large responses	induced partial co-association with the early endosome

From article PMC5838106, “Cathelicidin promotes inflammation by enabling binding of self-RNA to cell surface scavenger receptors” (Scientific Reports, 2018)
